From US6613901B2, “2-aminoalkylaminoquinolines as dopamine D4 ligands” (Neurogen Corporation, priority 1998, dated 2003)
pKi: −log10 of the molar value. Structures can show the parent of a compound that is named as a salt.

Columns and labels:
D2 receptors = biological target: T1, D2 receptors (Chlorocebus aethiops, UniProt P52702); assay: D2 receptor binding assay (3H-YM 09151-2); set-up: species or system African Green monkey; conditions: Table 1; COS cell pellets with recombinant receptor, 0.5 nM 3H-YM 09151-2
T1 construct: expressed in transfected cells; host or cells: COS cells
T1 sequence (P52702 whole entry): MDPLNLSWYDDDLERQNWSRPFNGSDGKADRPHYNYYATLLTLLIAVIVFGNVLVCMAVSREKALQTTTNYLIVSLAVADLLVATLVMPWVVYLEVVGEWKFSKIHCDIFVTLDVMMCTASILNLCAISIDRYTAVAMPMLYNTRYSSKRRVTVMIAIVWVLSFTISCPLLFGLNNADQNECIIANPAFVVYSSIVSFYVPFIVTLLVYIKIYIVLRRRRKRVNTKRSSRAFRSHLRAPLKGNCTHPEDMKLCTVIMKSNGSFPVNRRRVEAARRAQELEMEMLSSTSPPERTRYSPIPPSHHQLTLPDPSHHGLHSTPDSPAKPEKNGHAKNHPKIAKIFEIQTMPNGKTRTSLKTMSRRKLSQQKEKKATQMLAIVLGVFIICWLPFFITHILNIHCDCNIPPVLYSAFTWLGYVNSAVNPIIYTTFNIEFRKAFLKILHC
Protocol: (§1) Assay for D2 and D4 Receptor Binding Activity
(§2) Pellets of COS cells containing recombinantly produced D2 or D4 receptors from African Green monkey were used for the assays. The sample is homogenized in 100 volumes (w/vol) of 0.05 M Tris HCl buffer at 4° C. and pH 7.4. The sample is then centrifuged at 30,000×g and resuspended and rehomogenized. The sample is then centrifuged as described and the final tissue sample is frozen until use. The tissue is resuspended 1:20 (wt/vol) in 0.05 M Tris HCl buffer containing 100 mM NaCl.

M1 Muscarinic subtype = biological target: T2, M1 Muscarinic subtype (Homo sapiens, UniProt P11229); assay: M1 Muscarinic subtype assay per U.S. Pat. No. 5,093,333; type: binding; conditions: Table 1
T2 sequence (P11229 1-460): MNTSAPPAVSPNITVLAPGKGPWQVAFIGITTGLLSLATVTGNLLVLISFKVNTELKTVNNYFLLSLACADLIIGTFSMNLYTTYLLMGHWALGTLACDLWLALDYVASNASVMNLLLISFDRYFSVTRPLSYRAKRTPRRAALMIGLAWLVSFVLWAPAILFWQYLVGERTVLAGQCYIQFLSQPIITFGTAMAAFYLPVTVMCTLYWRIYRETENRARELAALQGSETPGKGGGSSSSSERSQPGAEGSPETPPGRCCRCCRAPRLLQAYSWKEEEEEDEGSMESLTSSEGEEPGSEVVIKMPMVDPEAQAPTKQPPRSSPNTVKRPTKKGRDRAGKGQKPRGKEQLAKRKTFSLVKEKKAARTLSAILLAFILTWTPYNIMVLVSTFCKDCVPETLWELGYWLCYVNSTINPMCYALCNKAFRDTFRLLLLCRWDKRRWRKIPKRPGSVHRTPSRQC

M2 Muscarinic subtype = biological target: T3, M2 Muscarinic subtype (Homo sapiens, UniProt P08172); assay: M2 Muscarinic subtype assay per U.S. Pat. No. 5,093,333; type: binding; conditions: Table 1
T3 sequence (P08172 1-466): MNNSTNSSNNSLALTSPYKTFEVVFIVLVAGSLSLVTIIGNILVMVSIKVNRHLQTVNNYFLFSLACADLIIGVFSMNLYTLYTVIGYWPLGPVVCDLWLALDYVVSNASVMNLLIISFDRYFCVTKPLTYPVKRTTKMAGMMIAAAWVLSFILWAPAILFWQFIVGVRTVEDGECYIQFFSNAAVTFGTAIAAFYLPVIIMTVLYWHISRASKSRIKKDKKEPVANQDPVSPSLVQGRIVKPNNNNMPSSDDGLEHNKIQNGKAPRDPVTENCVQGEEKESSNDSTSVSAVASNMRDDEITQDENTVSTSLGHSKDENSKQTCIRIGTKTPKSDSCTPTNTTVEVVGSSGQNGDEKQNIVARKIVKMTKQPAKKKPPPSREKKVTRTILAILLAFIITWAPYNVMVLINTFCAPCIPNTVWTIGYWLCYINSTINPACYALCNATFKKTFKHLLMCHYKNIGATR

D4 receptors = D4 receptors (Chlorocebus aethiops, UniProt A0A0D9REG7); assay: D4 receptor binding assay (3H-YM 09151-2); set-up: species or system African Green monkey; conditions: Table 1; COS cell pellets with recombinant receptor, 0.5 nM 3H-YM 09151-2; read-out: D4 K1
Chain of D4 receptors (A0A0D9REG7 entry or part of it): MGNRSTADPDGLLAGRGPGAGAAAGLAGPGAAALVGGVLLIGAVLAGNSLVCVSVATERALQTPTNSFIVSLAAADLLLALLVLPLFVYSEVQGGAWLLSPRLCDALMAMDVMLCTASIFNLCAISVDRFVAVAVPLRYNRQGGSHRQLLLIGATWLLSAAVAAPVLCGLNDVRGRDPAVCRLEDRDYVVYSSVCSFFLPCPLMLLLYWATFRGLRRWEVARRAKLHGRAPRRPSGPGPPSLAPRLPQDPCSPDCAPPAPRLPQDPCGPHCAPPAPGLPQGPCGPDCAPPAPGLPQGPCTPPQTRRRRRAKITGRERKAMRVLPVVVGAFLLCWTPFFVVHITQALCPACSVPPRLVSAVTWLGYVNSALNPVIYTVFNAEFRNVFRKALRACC
Protocol: as §1, §2

Compound	melting point	pKi (D2 receptors)	M1 (M1 Muscarinic subtype)	M2 (M2 Muscarinic subtype)	pKi (D4 receptors)
OC1(c2ccccc2)CCN(CCCNC2=Nc3ccccc3CC2)CC1 (as salt: hydrobromid)	247 °C				
OC1(c2ccc(Cl)cc2)CCN(CCCNC2=Nc3ccccc3CC2)CC1 (as salt: hydrobromid)	> 260 °C				
c1cnc(N2CCN(CCNc3ccc4ccccc4n3)CC2)nc1 [Compound 1, (2-(4-pyrimidin-2-ylpiperazinyl)ethyl)-2-quinolylamine]		5.57	264 nM	299 nM	
c1ccc(N2CCN(CCNC3=Nc4ccccc4CC3)CC2)nc1 [Compound 2, 2-3,4-dihydroquinolyl(2-(4-(2-pyridyl)piperazinyl)ethyl)amine]		< 7.00			
Fc1cnc(N2CCN(CCNC3=Nc4ccccc4CC3)CC2)nc1 [Compound 3, 2-3,4-dihydroquinolyl(2-(4-(5-fluoropyrimidin-2-yl)piperazinyl)ethyl)amine]			128 nM	144 nM	
(3-(4-(2,3-dimethylphenyl)piperazinyl)propyl)-2-quinolylamine [Compound 21]		< 7.00			7.66
(4-methyl(2-quinolyl))(3-(4-(pyrimidin-2-yl)piperazinyl)propyl)amine [Compound 22]		5.48			8.00
(4methyl(2-quinolyl))(2-(4-pyrimidin-2-ylpiperazinyl)ethyl)amine hydrobromide [Compound 11]			178 nM	246 nM	8.00
